This is an account of results in ChEMBL document CHEMBL1201862, “PubChem BioAssay data set” (2004).

Common to all, as to test: inhibition of tumour cell growth, NCI panel, 48 h
Test [1] deals with A549.
For test [2], the system named is ACHN.
In test [3] the test system is CCRF-CEM.
Test [4] relates to COLO 205.
The subject of test [5] is EKVX.
The subject of test [6] is HCC 2998.
For test [7], the system named is HOP-62.
In test [8] the test system is IGROV-1.
In test [9] the test system is NCI-H226.
Test [10] concerns NCI-H460.
The subject of test [11] is RPMI-8226.
The test system of test [12] is RXF 393.
Test [13] has as its system SF-539.
For test [14], the system named is SK-OV-3.
Test [15] has as its system SN12C.
In test [16] the test system is SW-620.
The test system of test [17] is Hs-578T.
In test [18] the test system is MCF7.
The test system of test [19] is PC-3.

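1) Cells in 96-well plates. 2) Compound, 48 h, 5 concentrations. 3) Linear interpolation between surrounding doses. 4) Unreached endpoint = highest concentration. The concentration for 50% growth inhibition is given as GI50.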 Calls of active or inactive are those of the source. Rule as the data show it: active = GI50 up to about 1.1 µM and inactive = higher.

On to `Oc1nnc(CNc2ccc(Cl)cc2Cl)c2ccccc12`, for which the GI50 in [1] was 17.7 µM (inactive); in test [2] it was 22.8 µM (inactive); in [3] it was > 100 µM (inactive); in [4], 45.8 µM (inactive); in test [5], 36.2 µM (inactive); in test [6], 20 µM (inactive). Besides, the GI50 in [7] is 20.5 µM (inactive); in test [8], 25.5 µM (inactive); in [9], 36.1 µM (inactive); in test [10], 24.6 µM (inactive); in [11], 58.2 µM (inactive); in test [12] it was 13.9 µM (inactive). For the same compound, the GI50 in test [13] is 17.1 µM (inactive); in test [14], 18.9 µM (inactive); in test [15] it was 34.3 µM (inactive); in test [16], 37.1 µM (inactive).
Take `CCOC(=O)CCC(NC(=O)c1ccc(CNc2nc3ccccc3nc2C(=O)OCC)cc1)C(=O)OCC` (configuration not stated): the GI50 in test [1], in test [2], in test [3], in [4], in [5] and in test [7] was > 100 µM (inactive) in each case. Besides, the GI50 in test [17] was > 100 µM (inactive); in test [8], 43.7 µM (inactive); in test [18], > 100 µM (inactive); in [9], > 100 µM (inactive); in test [19], > 100 µM (inactive); in [11], > 100 µM (inactive). The GI50 in test [14], in test [15] and in test [16] was > 100 µM (inactive) each time.
Regarding `CCn1c(=O)c2ccccc2n2c(=O)c3cc4ccccc4cc3nc12`, the GI50 in test [1], in test [2], in test [3], in test [4], in [5] and in [6] was > 100 µM (inactive) each time. Moreover, the GI50 was 96.8 µM (inactive) in test [7]; > 100 µM (inactive) in test [8]; > 100 µM (inactive) in [9]; > 100 µM (inactive) in test [10]; > 100 µM (inactive) in test [11]; 15.2 µM (inactive) in [12]. The GI50 is 62.7 µM (inactive) in test [13], 92.7 µM (inactive) in [14], > 100 µM (inactive) in [15] and > 100 µM (inactive) in [16].
Consider `COc1ccc(C2=NN=C3C(c4ccccc4)=Nc4ccccc4N3C2)cc1`, for which the GI50 is 35.7 µM (inactive) in test [1]; 14.1 µM (inactive) in test [2]; 2.16 µM (inactive) in test [3]; 15.3 µM (inactive) in test [4]; > 100 µM (inactive) in [5]; 46.8 µM (inactive) in [6]. Also, the GI50 in test [7] is 14.8 µM (inactive); in test [8] it was 29.4 µM (inactive); in [18] it was 21.7 µM (inactive); in [9], 41.6 µM (inactive); in test [10], 22.1 µM (inactive); in test [19], 31.6 µM (inactive). Also, the GI50 in test [11] is 38.8 µM (inactive); in [12] it was 10.9 µM (inactive); in test [13] it was 28.1 µM (inactive); in test [14] it was 80.2 µM (inactive); in test [15], 27.8 µM (inactive); in [16], 14.9 µM (inactive).
With `O=c1[nH]c(Nc2nc3ccccc3[nH]2)nc(O)c1-c1ccccc1`, the GI50 in test [1], in test [2], in [3], in test [4], in test [6] and in test [7] was > 100 µM (inactive) in each case. The GI50 was 72.3 µM (inactive) in test [17]; > 100 µM (inactive) in test [8]; > 100 µM (inactive) in test [18]; > 100 µM (inactive) in [9]; > 100 µM (inactive) in test [10]; > 100 µM (inactive) in [19]. Further, the GI50 in [12], in test [13], in test [14], in test [15] and in test [16] was > 100 µM (inactive) each time.
Take `O=S1(=O)COc2ccccc2-c2ncncc21`: the GI50 in test [1], in [2], in test [3], in [4], in test [5] and in [6] was > 100 µM (inactive) throughout. For the same compound, the GI50 is > 100 µM (inactive) in [7]; > 100 µM (inactive) in test [8]; > 100 µM (inactive) in test [9]; > 100 µM (inactive) in [10]; > 100 µM (inactive) in [11]; 1.02 µM (active) in test [12]. Further, the GI50 in test [13], in [14], in [15] and in test [16] was > 100 µM (inactive) throughout.
As for `Cc1ccccc1NC(=O)Cc1csc(N/N=C2\C(=O)Nc3ccccc32)n1`, the GI50 in test [1] was 48.9 µM (inactive); in [2], 36.8 µM (inactive); in [3] it was 46 µM (inactive); in [4] it was > 100 µM (inactive); in test [5] it was 31.8 µM (inactive); in [17], 25.8 µM (inactive). Further, the GI50 in test [8] was 33.9 µM (inactive); in [18], 50 µM (inactive); in test [9], 41.8 µM (inactive); in [10], 35.4 µM (inactive); in test [19], 18.6 µM (inactive); in test [11] it was 31 µM (inactive). Moreover, the GI50 in test [12] is 28.8 µM (inactive); in test [13], 17.9 µM (inactive); in [15], 61.2 µM (inactive); in [16], 1 µM (active).
On to `CC(C)[C@@H](C)[C@@]1(C)C[C@@H]1[C@@H](C)[C@H]1CC[C@@H]([C@@H]2CC=C3C[C@@H](O)CC[C@]3(C)C2=O)[C@]1(C)CCO`, for which the GI50 is 12.5 µM (inactive) in test [2]; 11.9 µM (inactive) in test [4]; 12.9 µM (inactive) in test [5]; 4.2 µM (inactive) in test [6]; 17.3 µM (inactive) in test [7]; 10.3 µM (inactive) in test [17]. Also, the GI50 was 15.6 µM (inactive) in test [8]; 10.9 µM (inactive) in test [18]; 12.5 µM (inactive) in [9]; 1.77 µM (inactive) in test [10]; 10.1 µM (inactive) in test [19]; 12.2 µM (inactive) in test [11]. Moreover, the GI50 in [12] was 3.3 µM (inactive); in [13], 12.6 µM (inactive); in test [15], 12.9 µM (inactive); in test [16], 7.55 µM (inactive).
Take `CCOC(=O)c1cn2c(n1)sc1cc(OC)ccc12`: the GI50 in test [1] is 7.38 µM (inactive); in [2], 8.75 µM (inactive); in [4], 3.4 µM (inactive); in [5], > 53.3 µM (inactive); in test [6], 31 µM (inactive); in [7] it was 13 µM (inactive). For the same compound, the GI50 in test [17] is 21 µM (inactive); in test [8] it was 26.7 µM (inactive); in test [18] it was 5.13 µM (inactive); in test [9], 25.1 µM (inactive); in [10], 29.8 µM (inactive); in test [19], 15.2 µM (inactive). Further, the GI50 is 4.08 µM (inactive) in [11]; 13.8 µM (inactive) in test [12]; 2.95 µM (inactive) in test [13]; 30.1 µM (inactive) in test [14]; 7.41 µM (inactive) in [15]; 3.08 µM (inactive) in [16].
Consider `CCC(Oc1ccc(OC)c2c1C(=O)CCC2)C(=O)O` (configuration not stated), for which the GI50 in test [1], in test [2], in [3], in test [4], in [5] and in test [6] was > 100 µM (inactive) in each case. Further, the GI50 in test [7], in test [8], in test [9], in test [10], in test [11] and in test [12] was > 100 µM (inactive) throughout. The GI50 in test [13], in [14], in test [15] and in test [16] was > 100 µM (inactive) in each case.
Regarding `CCCCCCNc1n[nH]c(=O)c2c1nnn2Cc1ccccc1`, the GI50 in test [1], in test [2], in test [3], in test [4], in test [5] and in [6] was > 100 µM (inactive) each time. The GI50 in [7], in test [18], in [10], in test [19], in test [11] and in [15] was > 100 µM (inactive) in each case.
Regarding `COc1ccc(/C(Cl)=C(\c2ccc(OCCN(C)C)cc2)c2ccc(OC(=O)C(C)(C)C)cc2)cc1`, the GI50 is 15 µM (inactive) in [1]; 16 µM (inactive) in [2]; 11 µM (inactive) in [3]; 13.9 µM (inactive) in test [4]; 13.7 µM (inactive) in [5]; 15.7 µM (inactive) in test [6]. For the same compound, the GI50 in [7] is 16.1 µM (inactive); in test [8], 17.7 µM (inactive); in test [9], 12.9 µM (inactive); in test [10] it was 10.3 µM (inactive); in test [11], 14.3 µM (inactive); in test [12] it was 8.28 µM (inactive). Further, the GI50 in test [13] was 13.8 µM (inactive); in [14], 11.1 µM (inactive); in [15], 13.4 µM (inactive); in test [16] it was 13.2 µM (inactive).
